# What was measured:
# cutworm (Agrotis sp.) = experiment: Field seed-treatment trial, cutworm larvae count per plot; assay type: in vivo; details: for Control (%) Observed: seed treatment, field with heavy Agrotis sp. population, larvae per plot counted 22 days after planting, 4 replicates, fludioxonil + mefenoxam base treatment
# Excerpt: (§1) An unexpected effect exists whenever the action of an active ingredient combination is greater than the sum of the actions of the individual components.
# (§2) The action to be expected E for a given active ingredient combination obeys the so-called COLBY formula and can be calculated as follows (COLBY, S. R. “Calculating synergistic and antagonistic responses of herbicide combination”. Weeds, Vol. 15, pages 20-22; 1967):
# (§3) ppm=milligrams of active ingredient (=a.i.) per liter of spray mixture X=% action by active ingredient A) using p ppm of active ingredient Y=% action by active ingredient B) using q ppm of active ingredient.
# (§4) According to COLBY, the expected (additive) action of active ingredients A)+B) using p+q ppm of active ingredient is
# (§5) If the action actually observed (O) is greater than the expected action (E), then the action of the combination is super-additive, i.e. there is a synergistic effect.
# In a field having a heavy population of cutworm (Agrotis sp.), seeds are planted that have the following treatments: • (a) a compound of formula (X) (0.6 mg ai/seed) • (b) thiamethoxam (0.63 mg ai/seed) • (c) a compound of formula (X) (0.6 mg ai/seed)+thiamethoxam (0.63 mg ai/seed)
# For all treatments, including check, fludioxonil (2.5 g ai/100 kg seeds) and mefenoxam (1.0 g ai/100 kg seeds) were used as a fungicide base treatment.
# Assessment: Count number larvae per plot (22 days after planting) Number of replicates: 4
# [1] = test system: cutworm (Spodoptera littoralis); experiment: Field seed-treatment trial, plant count per plot; assay type: in vivo; details: field with heavy Spodoptera littoralis population, plants per plot counted 13 days after planting, 4 replicates, fludioxonil + mefenoxam base treatment
# Excerpt: as §1, §2, §3, §4, §5
# In a field having a heavy population of cutworm (Spodoptera littoralis), seeds are planted that have the following treatments: • (a) a compound of formula (X) (0.6 mg ai/seed) • (b) thiamethoxam (0.63 mg ai/seed) • (c) a compound of formula (X) (0.6 mg ai/seed)+thiamethoxam (0.63 mg ai/seed)
# For all treatments, including check, fludioxonil (2.5 g ai/100 kg seeds) and mefenoxam (1.0 g ai/100 kg seeds) were used as a fungicide base treatment. […]
Molecule,"Control (%) Colby expected (cutworm (Agrotis sp.); expected (additive) action by COLBY formula, Agrotis sp., 22 days after planting) [%]",Control (%) Observed (cutworm (Agrotis sp.)) [%],% Control Observed [1] [%]
"mixture of 5,6-Dihydro-3′-O-ethyl Spinosyn J (RN: 187166-40-1 and 3′-O-Ethyl Spinosyn L (RN: 187166-15-0) in a weight ratio of 50-90%:10-50% [(a)]",15,50,48
"CN1COCN(Cc2cnc(Cl)s2)/C1=N\[N+](=O)[O-] [(b), thiamethoxam]",,31,40
